Experimental data published in PubChem BioAssay (NCI).
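Five concentrations, 48 hours, 96-well plates. Here, GI50 denotes the concentration required for 50% inhibition of growth. TGI: concentration producing complete growth inhibition.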

Key:
Assay in all cases: NCI-60 cell line screen, 48 h
MDA-MB-435 = tested on: MDA-MB-435
BT-549 breast = tested on: BT-549 breast
UO-31 renal = tested on: UO-31 renal
MDA-MB-231 breast = tested on: MDA-MB-231 breast
SF-268 CNS = tested on: SF-268 CNS
HCC-2998 colon = tested on: HCC-2998 colon
EKVX NSCLC = tested on: EKVX NSCLC
SNB-75 CNS = tested on: SNB-75 CNS
TK-10 renal = tested on: TK-10 renal
LOX IMVI melanoma = tested on: LOX IMVI melanoma

Compound	GI50 (MDA-MB-435) [µM]	TGI (MDA-MB-435) [µM]	GI50 (BT-549 breast) [µM]	TGI (BT-549 breast) [µM]	GI50 (UO-31 renal) [µM]	TGI (UO-31 renal) [µM]	GI50 (MDA-MB-231 breast) [µM]	TGI (MDA-MB-231 breast) [µM]	GI50 (SF-268 CNS) [µM]	TGI (SF-268 CNS) [µM]	GI50 (HCC-2998 colon) [µM]	TGI (HCC-2998 colon) [µM]	GI50 (EKVX NSCLC) [µM]	TGI (EKVX NSCLC) [µM]	GI50 (SNB-75 CNS) [µM]	TGI (SNB-75 CNS) [µM]	GI50 (TK-10 renal) [µM]	TGI (TK-10 renal) [µM]	GI50 (LOX IMVI melanoma) [µM]	TGI (LOX IMVI melanoma) [µM]
O=C(/C=C/c1ccccc1Cl)c1ccc(O)cc1	4.23	17.6	2.3	6.76	4.85	14	13.6	31	8.91	25.3	12.7	26.7	10	25.8	10.6	24.5	18.1	32.4	3.09	10.3
Clc1ccc(-c2nc(-c3c[nH]c4ncccc34)cs2)cc1	> 100	> 100	> 100	> 100	> 100	> 100	> 100	> 100	> 100	> 100	> 100	> 100	0.582	> 100	> 100	> 100	> 100	> 100	> 100	> 100
CC(/C=C/C=C/C=C/C=C/C=C/C(O)=C1/C(=O)C(CCC(=O)O)N(C)C1=O)=C\C(C)C(OC1CC(O)C(O)C(C)O1)C(C)C (stereo not given)		7.93		7.1		13.5		12.2		14		7.53		12.4		22.8		7.92		11.5
S=C(Nc1ccc(-c2nc3ccccc3s2)cc1)Nc1ccccn1	28.4	97.2	14.9	> 100	19.6	> 68.9	16.6	48.3	46.6	> 100	21.9	60.2	12.2	> 50.1	12	> 51.2	24.1	70.2	18.2	39.4
N#CC(NC12CC3CC(CC(C3)C1)C2)c1ccccc1 (stereo not given)		> 100		> 100		> 100		> 100		> 100		> 100		> 100		> 100		> 100		> 100
Cc1nc(NC(=O)COc2cccc(/C=C3\COc4ccccc4C3=O)c2)sc1C	2.14	5.74	1.59	3.28	0.704	1.63	2.63	7.41	1.85	3.5	1.94	3.49	1.24	3.12	5.49	18.7	2.31	4.08	1.01	2.55
C[C@@]12CCC[C@@](C)(C(=O)O)C1CC[C@]13C=C(CO)[C@](O)(CCC12)C3 (stereo not given in full)	> 100	> 100	> 100	> 100	> 100	> 100	> 100	> 100	> 100	> 100	> 100	> 100	> 100	> 100	> 100	> 100	> 100	> 100	> 100	> 100
